What was measured:
Assay in all cases: Post-emergence test
Type in all cases: in vivo
[1] = system: barley; conditions: 30 g/ha, barley (crop plant), after three weeks
Experimental: (§1) Post-emergence Test Solvent: 5 parts by weight of acetone Emulsifier: 1 part by weight of alkylaryl polyglycol ether To produce a suitable preparation of active compound, 1 part by weight of active compound is mixed with the stated amount of solvent, the stated amount of emulsifier is added and the concentrate is diluted with water to the desired concentration. Test plants which have a height of 5-15 cm are sprayed with the preparation of the active compound in such a way as to apply the particular amounts of active compound desired per unit area. After three weeks, the degree of damage to the plants is rated in % damage in comparison to the development of the untreated control. The figures denote: 0%=no action (like untreated control) 100%=total destruction

[2] = system: Amaranthus; conditions: 30 g/ha, after three weeks
Experimental: as §1

[3] = system: Chenopodium; conditions: 30 g/ha, after three weeks
Experimental: as §1

[4] = system: Abutilon; conditions: 30 g/ha, after three weeks
Experimental: as §1

[5] = system: Veronica; conditions: 30 g/ha, after three weeks
Experimental: as §1

For CS(=O)(=O)Nc1cc(N2C(=O)C3=C(CCCC3)C2=O)c(F)cc1C#N [Example 1, N-(4-cyano-2-fluoro-5-methylsulphonylaminophenyl)-3,4,5,6-tetrahydrophthalimide], the “tolerance with respect to crop plants” value [1] was “very good tolerance”, the “degree of damage to the plants, % damage in comparison to untreated control” value (from here on “degree of damage to the plants, % damage”) [2] was 100% and the “degree of damage to the plants, % damage” value [3] was 95%. The “degree of damage to the plants, % damage” value [4] was 100% and the “degree of damage to the plants, % damage” value [5] was 100%.
